Molecules are shown by their SMILES.

Holding throughout (assay type): in vivo
In experiment [1] the test system is adult cat fleas (Ctenocephalides felis). The experiment in a line: Ctenocephalides felis in-vitro contact test, adult cat flea. Conditions: 5 μg/cm^2 (=500 g/ha), after 48 hours. The procedure, abridged:
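After 48 h of room-temperature exposure in tubes whose walls carried dried compound residue (5 μg/cm^2, from 900 ppm acetone solution), adult cat fleas (5-10 per tube) were heat-challenged at 45-50° C up to 5 min. Fleas unable to climb away were counted dead or moribund, expressed as % efficacy.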

Experiment [2] concerns adult mosquitoes Aedes aegypti strain MONHEIM. The experiment can be described thus: Aedes aegypti test (AEDSAE surface treatment & contact assay). Conditions: 24 hours after contact, read-out: efficacy (mortality); for mortality at 4 mg/m2: surface concentration 4 mg/m^2, 30 min exposure; for mortality at 20 mg/m2: surface concentration 20 mg/m^2, 30 min exposure. In short, it runs like this:
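Test compound in acetone (2 mg/ml) with 2000 ppm rapeseed oil methyl ester was dried onto a glazed tile. Adult Aedes aegypti MONHEIM were exposed to the treated surface for 30 minutes. Percent mortality was scored 24 hours after contact.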

Experiment [3] deals with adult mosquitoes Anopheles funestus strain FUMOZ-R. The experiment can be described thus: Anopheles funestus test (ANPHFU surface treatment & contact assay). Particulars: surface concentration 4 mg/m^2, 30 min exposure, 24 hours after contact, read-out: efficacy (mortality). Here is the method: Anopheles funestus Test (ANPHFU Surface Treatment & Contact Assay) • Solvent: Aceton+2000 ppm rapeseed oil methyl ester (RME)
In order to produce a sufficient, active ingredient containing solution it is necessary to solve the test compound in the solvent-mix (acetone at 2 mg/ml/RME 2000 ppm). This solution is pipetted onto a glazed tile and after evaporation of the acetone, adult mosquitoes of the species Anopheles funestus strain FUMOZ-R (Hunt et al., Med. Vet. Entomol. 2005 September; 19(3): 271-275) are placed onto the dried surface. The exposure time is 30 minutes.
(§1) Mortality in percent (%) is determined 24 hours after contact of the insects to the treated surface. 100% mortality means that all tested insects are dead, whereas 0% means that no insect died.

In experiment [4] the test system is adult mosquitoes Culex quinquefasciatus strain P00. The experiment can be described thus: whole plant or invertebrate. Particulars: read-out: efficacy (mortality). Here is the method: Culex quinquefasciatus Test (CULXFA Surface Treatment & Contact Assay) • Solvent: Aceton+2000 ppm rapeseed oil methyl ester (RME)
In order to produce a sufficient, active ingredient containing solution it is necessary to solve the test compound in the solvent-mix (acetone at 2 mg/ml/RME 2 OOOppm). This solution is pipetted onto a glazed tile and after evaporation of the acetone, adult mosquitoes of the species Culex quinquefasciatus strain P00 are placed onto the dried surface. The exposure time is 30 minutes.
as §1

Experiment [5] has as its system cattle ticks (Rhipicephalus microplus) strain Parkhurst, SP-resistant. The experiment in a line: Rhipicephalus (Boophilus) microplus dip test. Conditions: 100 ppm, egg deposition after 7 days. Here is the method:
Rhipicephalus (Boophilus) Microplus—Dip Test
Test animal: cattle ticks (Rhipicephalus microplus) strain Parkhurst, SP-resistant
Solvent: dimethyl sulfoxide
To produce a suitable preparation of active compound, 10 mg of active compound are dissolved in 0.5 mL solvent, and the concentrate is diluted with water to the desired concentration.
This compound solution is pipetted into tubes. 8-10 engorged, adult, female cattle ticks (Rhipicephalus microplus) are placed in perforated tubes. These tubes are immersed in the aqueous compound solution until the ticks are completely moistened. After the liquid has drained off, the ticks are transferred to a filter paper in a plastic tray and stored in a climate chamber.
After 7 days egg deposition of fertile eggs is monitored. Eggs where fertility is not visible are stored in a climate chamber till hatching after about 42 days. An efficacy of 100% means all eggs are infertile; 0% means all eggs are fertile.

The subject of experiment [6] is brown planthopper (Nilaparvata lugens). The experiment can be described thus: Nilaparvata lugens spray test. Particulars: 96 h, 100 g/ha, rice plants, after 4 days. The procedure, abridged:
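Compound was formulated in acetone/DMF and diluted in water with 1000 ppm alkylarylpolyglycol ether emulsifier. Rice plants were sprayed with this preparation, then infested with brown planthoppers. Percent mortality was scored after 4 days.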

Experiment [7] deals with green peach aphid (Myzus persicae). The experiment in a line: Myzus persicae spray test. Conditions: foliar, 120 h, Chinese cabbage leaf disks, after 5 days. In short, it runs like this:
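Percent mortality read 5 days after spraying, where 100% is total kill and 0% none. The spray contained compound in acetone plus dimethylformamide, diluted with 1000 ppm emulsifier water. It was applied to Brassica pekinensis leaf disks carrying mixed-instar green peach aphids.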

In experiment [8] the test system is larvae of the southern green stink bug (Nezara viridula). The experiment can be described thus: Nezara viridula spray test. Conditions: in Hordeum vulgare, 96 h. The procedure, abridged:
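Mortality (%) of stink bug larvae on treated barley (Hordeum vulgare) was scored 4 days after infestation. Test solutions came from an acetone/DMF concentrate diluted with water containing 1000 ppm emulsifier and were sprayed onto plants before larvae were added.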

Take `C[C@H](NC(=O)c1cc(C(F)(F)F)cc(C(F)(F)F)c1)c1ncnn1-c1ncc(C#N)s1` [I-2]: the “efficacy (fleas dead or moribund)” value in experiment [1] worked out at 80%. Besides, the mortality at 4 mg/m2 in experiment [2], in experiment [3] and in experiment [4] was 80 to 100% each time. The mortality at 20 mg/m2 in experiment [2] is 80 to 100%. The “efficacy (infertile eggs)” value in experiment [5] amounted to 100%.
Regarding `Cc1nc([C@H](C)NC(=O)c2cc(C(F)(F)F)cc(C(F)(F)F)c2)n(-c2ncc(C(=O)N(C)CC3CC3)s2)n1` [I-4], the “efficacy (fleas dead or moribund)” value in experiment [1] was found to be 100%. Moreover, the mortality at 20 mg/m2 in experiment [2] was 80 to 100%. Further, the mortality at 100 g/ha in experiment [6] and in experiment [7] was 90% in each case.
Take `Cc1nc([C@H](C)NC(=O)c2cc(C(F)(F)F)cc(C(F)(F)F)c2)n(-c2ncc(C(=O)N(C)C)s2)n1` [I-5, 2-(5-{(1S)-1-[3,5-bis(trifluoromethyl)benzamido]ethyl}-3-methyl-1H-1,2,4-triazol-1-yl)-N,N-dimethyl-1,3-thiazole-5-carboxamide]: in experiment [1], the “efficacy (fleas dead or moribund)” value was 100%. Further, the “efficacy (infertile eggs)” value in experiment [5] is reported as 100%. In addition, the mortality at 100 g/ha in experiment [6] was determined as 100%; in experiment [7], 90%.
Regarding `CCN(C)C(=O)c1cnc(-n2nc(C)nc2[C@H](C)NC(=O)c2cc(C(F)(F)F)cc(C(F)(F)F)c2)s1` [I-6], the “efficacy (fleas dead or moribund)” value in experiment [1] was determined as 100%. The mortality at 4 mg/m2 in experiment [2] was in the range of 80 to 100%. The “efficacy (infertile eggs)” value in experiment [5] stood at 100%. The mortality at 100 g/ha in experiment [6] and in experiment [7] was 100% throughout.
As for `Cc1nc([C@H](C)NC(=O)c2cc(C(F)(F)F)cc(C(F)(F)F)c2)n(-c2ncc(C(=O)N(C)CC#N)s2)n1` [I-9], the results for the mortality at 100 g/ha in experiment [8], in experiment [6] and in experiment [7] were 90%, 100% and 100%, respectively. For the same compound, in experiment [1], the “efficacy (fleas dead or moribund)” value is 100%. Besides, the mortality at 4 mg/m2 in experiment [2] lay within 80 to 100%. Moreover, in experiment [2], the mortality at 20 mg/m2 lay in the range of 80 to 100%. Further, in experiment [5], the “efficacy (infertile eggs)” value worked out at 100%.
`Cc1nc([C@H](C)NC(=O)c2cc(C(F)(F)F)cc(C(F)(F)F)c2)n(-c2ncc(C(N)=O)s2)n1` [I-21, 2-(5-{(1S)-1-[3,5-bis(trifluoromethyl)benzamido]ethyl}-3-methyl-1H-1,2,4-triazol-1-yl)-1,3-thiazole-5-carboxamide] came in with a mortality at 100 g/ha in experiment [8] of 100%. In addition, the “efficacy (fleas dead or moribund)” value in experiment [1] is 100%. In experiment [2], the mortality at 4 mg/m2 lay in the range of 80 to 100% and the mortality at 20 mg/m2 fell in the range of 80 to 100%. In experiment [7], the mortality at 100 g/ha came out at 100%.
